Data on 14 compounds can be found in article PMC7115614 (European Journal of Medicinal Chemistry, 2019).

Molecules are shown by their SMILES.

Data set [1] relates to human embryonic lung (HEL) cells. The following applies: Table 5.
A further data set relates to MCF-7 cells. The data set is described as follows: Annexin V assay for apoptosis/necrosis detection. It counts as cell-based, human. The following applies: MCF-7, after 48 h, versus control.
For the next data set, the system named is NOS2. The data set is described as follows: Western blot, NOS2 in MCF-7 cells. It counts as cell-based, human. As to conditions: 0.08 μM, 24 and 48 h. (In western blotting, separated proteins are transferred to a membrane and probed.)
The test system of the next data set is hydroxy-HIF-1α (Pro564). The data set is described as follows: Western blot, hydroxy-HIF-1α in MCF-7 cells. It counts as cell-based, human. As to conditions: 0.08 μM, 24 and 48 h.

`COc1ccc(-c2cn(C/C=C3\OC(=O)C(OCc4ccccc4)=C3OCc3ccccc3)nn2)cc1` [Compound 10g]: the “Cytotoxicity Cell morphology (MCC)” value in data set [1] was greater than 100 μM.

As for `O=C1O/C(=C\Cn2cc(CCO)nn2)C(OCc2ccccc2)=C1OCc1ccccc1` [Compound 10p], the “Cytotoxicity Cell morphology (MCC)” value in data set [1] is reported as greater than 100 μM.

For the compound `Nc1ccn(C[C@@H](CO)OCP(=O)(O)O)c(=O)n1.O.O` [Cidofovir, reference compound], in data set [1], the “Cytotoxicity Cell morphology (MCC)” value is listed as greater than 300 μM.

Regarding `O=C1O/C(=C\Cn2cc(-c3cc(F)cc(F)c3)nn2)C(OCc2ccccc2)=C1OCc1ccccc1` [Compound 10d], in data set [1], the “Cytotoxicity Cell morphology (MCC)” value was determined as 100 μM.

As to `CCCCc1cn(C[C@H](O)[C@H]2OC(=O)C(OCc3ccccc3)=C2OCc2ccccc2)nn1` [Compound 8l, 2,3-O,O-dibenzyl-6-(4-butyl-1,2,3-triazol-1-yl)-6-deoxy-L-ascorbic acid], the “Cytotoxicity Cell morphology (MCC)” value in data set [1] turned out to be 20 μM.

`COc1ccccc1-c1cn(C/C=C2\OC(=O)C(OCc3ccccc3)=C2OCc2ccccc2)nn1` [Compound 10h]: the “Cytotoxicity Cell morphology (MCC)” value in data set [1] is listed as 100 μM.

Turning to `O=C1O/C(=C\Cn2cc(-c3ccc(Br)cc3)nn2)C(OCc2ccccc2)=C1OCc1ccccc1` [Compound 10e], the “Cytotoxicity Cell morphology (MCC)” value in data set [1] is reported as greater than 100 μM.

For `CC(C)(C)c1cn(C/C=C2\OC(=O)C(OCc3ccccc3)=C2OCc2ccccc2)nn1` [Compound 10n], in data set [1], the “Cytotoxicity Cell morphology (MCC)” value is given as 100 μM.

As for `O=C1O[C@H]([C@@H](O)Cn2cc(C3CC3)nn2)C(OCc2ccccc2)=C1OCc1ccccc1` [Compound 8k, 2,3-O,O-dibenzyl-6-[4-cyclopropyl-1,2,3-triazol-1-yl]-6-deoxy-L-ascorbic acid], the “Cytotoxicity Cell morphology (MCC)” value in data set [1] is given as 100 μM.

For the compound `O=c1[nH]c(=O)n([C@H]2C[C@H](O)[C@@H](CO)O2)cc1/C=C/Br` [Brivudin, reference compound], in data set [1], the “Cytotoxicity Cell morphology (MCC)” value is recorded as greater than 300 μM.

Turning to `C[Si](C)(C)c1cn(C[C@H](O)[C@H]2OC(=O)C(OCc3ccccc3)=C2OCc2ccccc2)nn1` [Compound 8b, 2,3-O,O-dibenzyl-6-deoxy-6-(4-trimethylsilyl-1,2,3-triazol-1-yl)-L-ascorbic acid], the “Cytotoxicity Cell morphology (MCC)” value in data set [1] is 100 μM.

Take `CCCCCCCCCCc1cn(C[C@H](O)[C@H]2OC(=O)C(OCc3ccccc3)=C2OCc2ccccc2)nn1` [Compound 8m, 2,3-O,O-dibenzyl-6-(4-decyl-1,2,3-triazol-1-yl)-6-deoxy-L-ascorbic acid]: in the data set with MCF-7 cells, the “increase in late apoptotic cell population” value is recorded as 24.7% and the “increase of necrotic cell populations” value was 7.92%. For the same compound, the “levels of NOS2” value with NOS2 is on record as “decreased levels”. The “Cytotoxicity Cell morphology (MCC)” value in data set [1] worked out at 20 μM. Moreover, in the data set on hydroxy-HIF-1α (Pro564), the “hydroxylated HIF-1α levels” value is given as “significant increase”.

As to `CC(C)(C)c1cn(C[C@H](O)[C@H]2OC(=O)C(OCc3ccccc3)=C2OCc2ccccc2)nn1` [Compound 8n, 2,3-O,O-dibenzyl-6-(4-tert-butyl-1,2,3-triazol-1-yl)-6-deoxy-L-ascorbic acid], in data set [1], the “Cytotoxicity Cell morphology (MCC)” value came to 100 μM.

On to `Cc1ccc(-c2cn(C/C=C3\OC(=O)C(OCc4ccccc4)=C3OCc3ccccc3)nn2)cc1` [Compound 10f], for which the “Cytotoxicity Cell morphology (MCC)” value in data set [1] amounted to 20 μM.
